Experimental findings from paper PMC6452685, “Lysyl-tRNA synthetase as a drug target in malaria and cryptosporidiosis” (Proceedings of the National Academy of Sciences of the …, 2019) are described below.

Molecules are shown by their SMILES. pEC50: −log10 of the molar value. Read-outs that look alike come from different tables or passages of the source.

Series [1] can be described thus: CHI logD. It counts as physicochemical. Particulars: reversed-phase HPLC (Luna C18 column), pH 7.4. As for the experimental part: targets. Thi s can be determi ned by ei ther l og D or Log P measurements, whi ch are tradi ti onal ly qui te time consuming and require quite large amounts of com pound to determine accurately.
The CHI Log D assay, fi rst descri bed by Valkό et a l. (17), has been adapt ed and perfo rmed at pH 7. […] An ali quot (10 µl) i s then i njected onto a Luna C18 col umn (Phenomenex, Maccl esfi el d, UK, 4.6 x 150 mm) wi th 5 µ m pa rti cl e size. Mobil e phase A (MPA) i s 50 mM ammoni um acetate (pH 7.4) and mobi l e Phase B (MPB) i s MeCN. The LC system used was a Dionex Ultimate 3000 HLPC where 10 0% MPA was hel d for the i ni ti al 1.5 mi n of the run, then a l i near gradi ent to 0% MPA takes pl ace over the next 10 mi n bef ore being held there fo r a furthe r 2. 5 mi n bef ore re-eq uilibration back to 100% MPA at 14 min with data collection continuing until 1 5 mi n. Flow rate was 1 ml/mi n w i t h det ecti on at 25 4 nm U V and ambi ent t emperat ure.
The ret ent i on t i me (t R) of t he unk nown drug is interpolated from the slope and intercept created us i ng ret ent i on t i mes of s t andard mi x t ure c o mponent s cont ai ni ng paracet amol , t heophy l l i ne, caffei ne, benzi mi dazol e, col chi ci ne, carbamazepi ne, i ndol e, propi ophenone, b uty rophen one , valerophenone and hepatophenone (prepared at 10 µg/ml in MeCN:water [1/1, by v ol ume]), w hi ch cov ers the C HI l og D rang e from -1 t o 4. […]
4.4 Int r ins ic C le ar ance (CLi) experiments
The mous e an d h uman c ry opres erv ed he pat ocy t es w ere s uppl i ed by Xenot ech (bat ches M C 53 9 n a HUE50H ). The procedure was carried out as reported prev i ous l y (15). […] Immediately, at time zero, then at 3, 6, 9, 15 and 30 min an aliquot ( 50 μl) o f the i ncubati on mi x ture was remov ed and mi x ed with acetonitrile (100 μl) contai ni ng i nternal s tandard to stop the reaction. […] XLfi t software (I DBS, Guildford UK) was used to cal cul ate the exponenti al decay and consequentl y the rate cons tant (ke-1) from the rati o of peak area of tes t compou nd to i nternal s tandard at each ti me poi nt . […]

The target in series [2] is PfKRS1 (Plasmodium falciparum, UniProt Q8IDJ8). Kind of series: Recombinant KRS thermal shift assay, PfKRS1. To be noted: 40 µM inhibitor. Also noted: recombinant PfKRS1 (77–583 and 80–583); 6xHis (N); made in house; host or cells: E. coli Rosetta BL21(DE3), vector pAVA0421. The series is classed as binding. On the procedure: (§1) 2.9 Recombin ant KR S thermal shift assays ( UW)
(§2) Recombi nant PfKRS1, CpKRS, and HsKRS were di l u ted to 4 µM in assay buffe r c ontaining 20 mM Tris-HC l pH 8, 200 mM NaC l , 5 mM DTT, 5 mM MgC l2 and l i gands (1 mM lysi ne; 40 µM ATP; and 40 µM inhibitors) in various combinations. Ali quot s (10 µl) were added to a 96-well PCR plate and incubated at ambi ent temperature for 15 mi n. SYPRO® Ora n g e dye (I nv itrog en) was di l uted i n ass ay buffer to a 5x concent rat i on a nd 1 0 µl was added to t he P C R pl at e t o bri ng t he fi nal as s ay v ol ume t o 20 µl. The pl at e w as s eal ed and pul s e cent ri fug ed t o cons ol i dat e t he as s ay mix t ure and remov e ai r bu bbl es .
(§3) Us i ng a StepOne Pl us RT-PCR thermal cycler (Ap plied Biosystems) to monitor fluorescence at a n excitation/emission wavelength of 300/470-570 nm, the samples were heated from 25° C to 99° C at a ramp rate of .016° C/sec. Graphpa d® P rism software (GraphPad S oftware, San Diego, CA) was used to determine melting temperatures (Tm) us i ng Bol tzmann s i g moi dal analys is .
(§4) Table S3. Thermal shift data for compounds with P fKRS1, Cp KRS a nd Hs KRS.
(§5) Com poun d Eff ects o n Lys R S M elti ng Tem pe ratu re ( ∆Tm) […]

Series [3] concerns Plasmodium falciparum 3D7. The series is described as follows: P. falciparum 3D7 growth inhibition (SYBR green I). The series is classed as cell-based. Particulars: for pEC50: Plasmodium falciparum, P. falciparum 3D7 bloodstream, read-out: Pf(3D7) EC50. The text has this:
3.2 Cytotoxicity Studies (Dundee)
In vi t ro cy totox i ci ty s tudies can be ca rri ed out us i ng Hep G 2 (Human C aucas i an hepatocy te ca rci noma, ECACC cat. no. 850 114 30) us ed as i ndi cators f or g eneral mammal i an cel l tox i ci ty . […]
3.3 In vitro Cell Assay D ata Analysis (Du ndee) […]
as 0%. Qual i ty control c ri teri a for passi ng pl ates were as fol l ow s : Z’ > 0.
< 15 . T he f ormula used to calculate Z’ is 1- 3´ (St D e v _ hi gh + St D e v_ low) . […]
Al l EC50 Curve fitti ng was undertaken usi ng XLFi t versi on 4.2 usi ng Model 205 wi th the foll owi ng 4 paramet ri c equat i on: A + (?-A) ,where A=% i nhi bi ti on at bo ttom, B=% i nhi bi ti on at top, C= EC , […]
D= slope, x= inhibitor concentration a nd y= % inhibition. […]
was fixed to 100 only when at least 50% of inhibition was reached.

Series [4] concerns the target T1, HsKRS (Homo sapiens, UniProt Q15046).
T1 construct: HsKRS (full-length) proteins; 6xHis (N); made in house; host or cells: E. coli Rosetta BL21(DE3), vector pAVA0421 (UW); template pET28a-KRS
The series is described as follows: Recombinant KRS thermal shift assay, HsKRS. It counts as binding. Particulars: 40 µM inhibitor. As for the experimental part: as §1, §2, §3, §4, §5

Setting [5] is: read-out: ΔTm PfKRS, ATP + Lysine.
Where [6] appears, read: read-out: ΔTm PfKRS, no substrate.

PfKRS1, sequence (Q8IDJ8 77-583): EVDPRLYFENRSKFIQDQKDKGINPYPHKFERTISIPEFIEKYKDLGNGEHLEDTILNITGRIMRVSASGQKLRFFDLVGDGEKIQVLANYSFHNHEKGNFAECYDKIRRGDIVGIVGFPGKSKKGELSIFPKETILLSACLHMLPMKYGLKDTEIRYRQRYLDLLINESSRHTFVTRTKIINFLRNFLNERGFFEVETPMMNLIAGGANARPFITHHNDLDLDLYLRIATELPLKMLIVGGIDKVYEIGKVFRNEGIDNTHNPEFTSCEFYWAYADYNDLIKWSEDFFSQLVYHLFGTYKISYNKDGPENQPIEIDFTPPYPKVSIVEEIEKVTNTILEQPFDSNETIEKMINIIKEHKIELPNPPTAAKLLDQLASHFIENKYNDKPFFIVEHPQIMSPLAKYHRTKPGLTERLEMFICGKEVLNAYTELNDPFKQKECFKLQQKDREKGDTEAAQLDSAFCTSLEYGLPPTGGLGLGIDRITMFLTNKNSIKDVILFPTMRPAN
T1 sequence (Q15046 whole entry): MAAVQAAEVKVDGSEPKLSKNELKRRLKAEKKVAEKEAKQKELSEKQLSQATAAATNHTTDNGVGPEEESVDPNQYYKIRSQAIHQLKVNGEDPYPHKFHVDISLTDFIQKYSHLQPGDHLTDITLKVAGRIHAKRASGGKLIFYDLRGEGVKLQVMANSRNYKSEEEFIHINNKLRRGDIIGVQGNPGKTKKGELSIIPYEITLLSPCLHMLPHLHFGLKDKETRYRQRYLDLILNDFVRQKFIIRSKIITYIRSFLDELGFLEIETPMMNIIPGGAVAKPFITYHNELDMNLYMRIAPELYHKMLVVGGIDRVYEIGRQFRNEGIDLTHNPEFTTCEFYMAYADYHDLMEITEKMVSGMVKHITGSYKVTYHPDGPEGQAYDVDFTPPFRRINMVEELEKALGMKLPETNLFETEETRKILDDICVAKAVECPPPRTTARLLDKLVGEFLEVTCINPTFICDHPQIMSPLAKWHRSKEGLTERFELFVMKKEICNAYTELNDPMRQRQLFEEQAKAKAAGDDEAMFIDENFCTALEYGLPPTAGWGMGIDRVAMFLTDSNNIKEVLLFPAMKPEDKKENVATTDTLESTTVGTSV

Compound `C[C@H]1CCC[C@H](C[C@H]2Cc3cc(O)cc(O)c3C(=O)O2)O1` [Compound 1, cladosporin, reference compound] came in with a chromatographic logD in series [1] of 2.4. For the same compound, the ΔTm at 40 µM is 7.2 °C in series [2] (ATP + Lysine, read-out: ΔTm PfKRS); 3.5 °C in series [2] (ATP, read-out: ΔTm PfKRS); 9.3 °C in series [2] (Lysine, read-out: ΔTm PfKRS); 3.4 °C in series [2] (no substrate, read-out: ΔTm PfKRS); -8.2 °C in series [4] (ATP + Lysine); 0.3 °C in series [4] (ATP). The values for the ΔTm at 40 µM in series [4] (Lysine) and in series [4] (no substrate) were -9.2 °C and -0.1 °C, respectively. For the same compound, in series [3], the pEC50 is 7.14.

With `O=C(NCC1(O)CCCCC1)c1cc(=O)c2cc(F)ccc2o1` [Compound 4], the ΔTm at 40 µM was 5.1 °C in series [2] (setting [5]); 0.5 °C in series [2] (read-out: ΔTm PfKRS, ATP); 7.5 °C in series [2] (read-out: ΔTm PfKRS, Lysine); 0.9 °C in series [2] (setting [6]); -7.2 °C in series [4] (ATP + Lysine); -0.1 °C in series [4] (ATP). In addition, the results for the ΔTm at 40 µM in series [4] (Lysine) and in series [4] (no substrate) were -7.4 °C and -0.5 °C, respectively. Besides, in series [3], the pEC50 is 6.74.

In series [1], `O=C(NCC1(O)CCC(F)(F)CC1)c1cc(=O)c2cc(F)ccc2o1` [Compound 5] had a chromatographic logD of 1.7. Moreover, the ΔTm at 40 µM in series [2] (setting [5]) was 5.3 °C; in series [2] (read-out: ΔTm PfKRS, ATP) it was 0.9 °C; in series [2] (read-out: ΔTm PfKRS, Lysine), 7.5 °C; in series [2] (setting [6]), 1.3 °C; in series [4] (ATP + Lysine), -7.4 °C; in series [4] (ATP), 0.4 °C. The ΔTm at 40 µM in series [4] (Lysine) was -7.6 °C; in series [4] (no substrate), 0.3 °C. Also, the “cellular selectivity between P. falciparum parasites and human HepG2 cells” value in series [3] turned out to be 180 fold. Further, the pEC50 in series [3] was 6.57.

`O=C(NCC1CCCCC1)c1cc(=O)c2cc(F)ccc2o1` [Compound 3]: the ΔTm at 40 µM in series [2] (setting [5]) was 2.4 °C; in series [2] (read-out: ΔTm PfKRS, ATP), 0.2 °C; in series [2] (read-out: ΔTm PfKRS, Lysine) it was 5.3 °C; in series [2] (setting [6]), 0.5 °C; in series [4] (ATP + Lysine) it was -10.8 °C; in series [4] (ATP), 0.4 °C. Besides, the ΔTm at 40 µM is -8.4 °C in series [4] (Lysine) and -0.1 °C in series [4] (no substrate). Moreover, the pEC50 in series [3] was 6.54.

In series [1], `O=C(NCC1CCCCC1)c1cc(=O)c2ccccc2o1` [Compound 2] returned a chromatographic logD of 2.9. The ΔTm at 40 µM is 5.1 °C in series [2] (setting [5]); 0.9 °C in series [2] (read-out: ΔTm PfKRS, ATP); 7.4 °C in series [2] (read-out: ΔTm PfKRS, Lysine); 1.2 °C in series [2] (setting [6]); -8.6 °C in series [4] (ATP + Lysine); 0.3 °C in series [4] (ATP). Also, the ΔTm at 40 µM is -10 °C in series [4] (Lysine) and -0.3 °C in series [4] (no substrate). In addition, the negative-log EC50 (pEC50) in series [3] was 6.72.
